Activity calls are given as the source filed them. How the calls were made is not given here.
Test system: CCRIS mutagenicity, Ames/micronucleus/aberration tests
Assay: CCRIS mutagenicity studies

Measured: mutagenic call

CC1CNCC(C)O1 (stereo not given)
inactive: Test System: AMES SALMONELLA TYPHIMURIUM, Strain/Indicator: TA98, Metabolic Activation: HAMSTER, LIVER, S-9, AROCLOR 1254, Method: PREINCUBATION inactive; negative | Test System: AMES SALMONELLA TYPHIMURIUM, Strain/Indicator: TA98, Metabolic Activation: NONE, Method: PREINCUBATION inactive; negative | Test System: AMES SALMONELLA TYPHIMURIUM, Strain/Indicator: TA98, Metabolic Activation: RAT, LIVER, S-9, AROCLOR 1254, Method: PREINCUBATION inactive; negative | Test System: AMES SALMONELLA TYPHIMURIUM, Strain/Indicator: TA100, Metabolic Activation: HAMSTER, LIVER, S-9, AROCLOR 1254, Method: PREINCUBATION inactive; negative | Test System: AMES SALMONELLA TYPHIMURIUM, Strain/Indicator: TA100, Metabolic Activation: NONE, Method: PREINCUBATION inactive; negative | Test System: AMES SALMONELLA TYPHIMURIUM, Strain/Indicator: TA100, Metabolic Activation: RAT, LIVER, S-9, AROCLOR 1254, Method: PREINCUBATION inactive; negative | Test System: AMES SALMONELLA TYPHIMURIUM, Strain/Indicator: TA1537, Metabolic Activation: HAMSTER, LIVER, S-9, AROCLOR 1254, Method: PREINCUBATION inactive; negative | Test System: AMES SALMONELLA TYPHIMURIUM, Strain/Indicator: TA1537, Metabolic Activation: NONE, Method: PREINCUBATION inactive; negative | Test System: AMES SALMONELLA TYPHIMURIUM, Strain/Indicator: TA1537, Metabolic Activation: RAT, LIVER, S-9, AROCLOR 1254, Method: PREINCUBATION inactive; negative

C[Si](Cl)(Cl)Cl
inactive: Test System: AMES SALMONELLA TYPHIMURIUM, Strain/Indicator: TA98, Metabolic Activation: NONE, Method: STANDARD PLATE inactive; negative | Test System: AMES SALMONELLA TYPHIMURIUM, Strain/Indicator: TA98, Metabolic Activation: RAT LIVER S-9, AROCLOR 1254, Method: STANDARD PLATE inactive; negative | Test System: AMES SALMONELLA TYPHIMURIUM, Strain/Indicator: TA100, Metabolic Activation: NONE, Method: STANDARD PLATE inactive; negative | Test System: AMES SALMONELLA TYPHIMURIUM, Strain/Indicator: TA100, Metabolic Activation: RAT LIVER S-9, AROCLOR 1254, Method: STANDARD PLATE inactive; negative | Test System: AMES SALMONELLA TYPHIMURIUM, Strain/Indicator: TA1535, Metabolic Activation: NONE, Method: STANDARD PLATE inactive; negative | Test System: AMES SALMONELLA TYPHIMURIUM, Strain/Indicator: TA1535, Metabolic Activation: RAT LIVER S-9, AROCLOR 1254, Method: STANDARD PLATE inactive; negative | Test System: AMES SALMONELLA TYPHIMURIUM, Strain/Indicator: TA1537, Metabolic Activation: NONE, Method: STANDARD PLATE inactive; negative | Test System: AMES SALMONELLA TYPHIMURIUM, Strain/Indicator: TA1537, Metabolic Activation: RAT LIVER S-9, AROCLOR 1254, Method: STANDARD PLATE inactive; negative | Test System: AMES SALMONELLA TYPHIMURIUM, Strain/Indicator: TA1538, Metabolic Activation: NONE, Method: STANDARD PLATE inactive; negative | Test System: AMES SALMONELLA TYPHIMURIUM, Strain/Indicator: TA1538, Metabolic Activation: RAT LIVER S-9, AROCLOR 1254, Method: STANDARD PLATE inactive; negative | Test System: E. COLI, Strain/Indicator: P3078 POLA, Metabolic Activation: NONE, Method: SPOT TEST inactive; negative | Test System: E. COLI, Strain/Indicator: P3078 POLA, Metabolic Activation: RAT LIVER S-9, AROCLOR 1254, Method: SPOT TEST inactive; negative | Test System: E. COLI, Strain/Indicator: W3110, Metabolic Activation: NONE, Method: SPOT TEST inactive; negative | Test System: E. COLI, Strain/Indicator: W3110, Metabolic Activation: RAT LIVER S-9, AROCLOR 1254, Method: SPOT TEST inactive; negative | Test System: MOUSE LYMPHOMA, Strain/Indicator: L5178Y (TK+/TK-), Metabolic Activation: NONE, Method: SUSPENSION/PLATE inactive; negative | Test System: MOUSE LYMPHOMA, Strain/Indicator: L5178Y (TK+/TK-), Metabolic Activation: RAT, LIVER, S-9, Method: SUSPENSION/PLATE inactive; negative

From PubChem BioAssay AID1259407 (Chemical Carcinogenesis Research Information System (CCRIS), 2018)
